Test [1] relates to voltage-gated calcium channels, N1E115 mouse neuroblastoma cells. The class given is cell-based.
In test [2] the test system is OCT receptor sites, NG-108 cells. The class given is binding, Rat glioma x mouse neuroblastoma.

As to `C[C@@H](O)[C@@H]1NC(=O)[C@H](Cc2ccc(O)cc2)NC(=O)[C@@H]2C[C@@H](O)CN2C(=O)[C@H](CC(N)=O)NC(=O)[C@@H]2CSSC[C@@H]3NC(=O)[C@H](CO)NC(=O)[C@H](CO)NC(=O)CNC(=O)[C@@H]4C[C@@H](O)CN4C(=O)[C@H](CO)NC(=O)[C@H](CCCCN)NC(=O)[C@@H](N)CSSC[C@H](NC(=O)[C@H](CSSC[C@@H](C(=O)N[C@@H](Cc4ccc(O)cc4)C(N)=O)NC(=O)[C@H](CCCNC(=N)N)NC(=O)[C@H](CCCCN)NC1=O)NC(=O)[C@H](CC(N)=O)NC(=O)[C@H](Cc1ccc(O)cc1)NC(=O)[C@H](CO)NC(=O)[C@H]([C@@H](C)O)NC(=O)[C@@H]1C[C@@H](O)CN1C(=O)[C@H](CO)NC3=O)C(=O)N[C@@H](CCCNC(=N)N)C(=O)N[C@@H](CO)C(=O)N2` [GVIA, HCysLysSer4HypGlySerSerCysSer4HypThrSerTyrAsnCysCysArgSerCysAsn4HypTyrLysArgCysTyr-NH2], the “ED50 (50% inhibition of calcium current)” value in test [1] is recorded as 12 nM.
`CSCC[C@@H]1NC(=O)[C@H](CC(C)C)NC(=O)[C@H](CCCNC(=N)N)NC(=O)[C@H](CO)NC(=O)[C@@H]2CSSC[C@@H]3NC(=O)[C@H](CO)NC(=O)CNC(=O)[C@H]([C@@H](C)O)NC(=O)[C@H](CSSC[C@H](N)C(=O)N[C@@H](CCCCN)C(=O)NCC(=O)N[C@@H](CCCCN)C(=O)NCC(=O)N[C@@H](C)C(=O)N[C@@H](CCCCN)C(=O)N2)NC(=O)[C@H](CSSC[C@@H](C(N)=O)NC(=O)[C@H](CCCCN)NC(=O)CNC(=O)[C@H](CO)NC(=O)[C@H](CCCNC(=N)N)NC3=O)NC(=O)[C@H](CC(=O)O)NC(=O)[C@H](Cc2ccc(O)cc2)NC1=O` [MVIIA]: the “concentration of specific binding sites” value in test [2] was found to be 45.6.

Source of the values: patent publication US5051403A (priority 1989, dated 1991).
